According to patent publication US20240350669A1, “INHIBITION OF KYNURENINE SYNTHESIS AND/OR SIGNALING TO TREAT LEUKEMIA AND MYELODYSPLASIA” (THE TRUSTEES OF COLUMBIA UNIVERSITY IN THE CITY OF NEW YORK, priority 2022, published 2024):

Assays:
IDO1 [1] = test: Circulating Kyn and Trp levels (ELISA) in WT mice on epacadostat diet; type: in vivo, mouse
Experimental: (§1) Epacadostat (AdooQ Cat #A15554)-treatment: for the WT C57BL/6J mice, treatment started at the same time than MLL/AF9 cells were transplanted. For the patient-derived AML cells (PDX) transplanted into NSG mice, treatment started 8 weeks after transplant, at the same time than Ara-C and during 3 weeks. Mice were supplied with ad libitum epacadostat-supplemented diet (Research Diets Inc.) at 800 mg/kg (low-dose) or 1.6 g/kg (high-dose). For the PDX transplanted into NSGS mice, treatment started 3 weeks after transplant, by daily gavage at 300 mg/kg (InvivoChem Cat #: V0942, dissolved in 10% DMSO, 40% PEG 300 and 50% NaCl 0.9%) for 2 weeks.
(§2) Quantification in serum from peripheral blood (mice) or BM plasma (patients) of Kyn and Trp was assessed by ELISA using independent kits (ImmunoSmol) as per manufacturer's instructions. The ratio between Kyn and Trp levels is shown. SAA3 in serum (murine SAA3 ELISA Kit Millipore) and SAA1 in patient BM plasma (Amyloid A1 DuoSet ELISA Kit (R&D) were assessed as per manufacturer's instructions.

[2] = Systemic toxicity observation in WT mice on epacadostat diet; type: in vivo; conditions: ad libitum diet 0.8 g/kg
Experimental: as §1

IDO1 [3] = test: Epacadostat in vitro: kynurenine secretion and cell cycle progression; type: cell-based
MLL/AF9 AML cells = test: MLL/AF9 syngeneic leukemia model in non-irradiated WT mice; type: in vivo, mouse
Experimental: PTH bone-anabolic treatment: mice were injected intraperitoneally (i.p.) with PTH (Bachem) at 80 μg/kg/day in PBS. Injections started 1 week before MLL/AF9 injection and continued along 2-3 more weeks until mice were harvest.
SB224289-SB9-(TOCRIS Cat #1221) treatment: mice were injected intraperitoneally (i.p.) daily with SB9 (5 mg/kg in 0.9% NaCl) 1 week after leukemia injection and for the duration of the experiment. Assuming a 20 g body weight (BW) and a 2 ml total blood volume per mouse—as well as an even distribution of the drug-systemic concentration of SB9 should be approximately 50 μg/ml. Based on the MW of SB9 (557.09), the final concentration—at equal distribution—in blood should be 8.97521e-05 M (≈90 μM).
as §1
All leukemia models were introduced by intravenous (i.v.) injection and transplanted into non-irradiated secondary recipient experimental animals. BALB/c mice were used for the WEHI-3B leukemia model (0.5×10^6/cells/mouse) and C57BL/6J mice for MLL/AF9-dsRed (0.2×10^6/cells/mouse). Leukemia progression was assessed by fluorescence (MLL/AF9 dsRed) using the IVIS-Spectrum Optical Imaging System (Caliper, Perkin Elmer). Mice were shaved to reduce light attenuation.

[4] = tested on: patient-derived AML cells; test: Patient-derived AML xenograft (PDX) in NSGS mice, epacadostat daily gavage; type: in vivo, mouse; conditions: daily gavage 300 mg/kg
Experimental: as §1
4-6 weeks old NSG (CDX model) or NSGS (PDX model) mice were pre-conditioned with sublethal (1.4 Gy) total-body irradiation. 24 h after, 1×10^6 OCI-AML3 or 2×10^5 human BM CD34^+ (healthy) or primary AML patient samples were injected i.v. Engraftment levels were monitored and mice were randomized after BM aspiration 3-4 weeks later and immunophenotyped by the presence of mCD45 (BioLegend Cat #103133, RRID: AB_10899570), hCD45 (BioLegend Cat #368512, RRID: AB_2566372), hCD33 (BioLegend Cat #303404, RRID: AB_314348), hCD34 (BioLegend Cat #343518, RRID: AB_1937203) cell populations. For the low-burden PDX model (kynurenine injections), mice were treated 1 week after transplant.
as §2
Cell labelling was done by i.p. injection of mice with 50 mg/kg of freshly prepared 5-Ethynyl-2′-deoxyuridine-Edu-(Cayman Chemical Company Cat #20518). After 3-4 h, BM was harvested, and human cells were negatively selected by mouse cell depletion using mouse CD45 magnetic beads (Miltenyi). The human BM cells were then stained CD45 and CD33 to identify the leukemic blast. Cell cycle/proliferation analysis was performed using the Click-iT Plus EdU Flow Cytometry Assay Kit (Invitrogen, Cat #C10420) following manufacturers' instructions. Fixable viability dye (Biolegend) was used to discriminate the death population. Single color controls were used to set compensations and fluorescence minus one control were used to set gates. Analysis was performed with FlowJo software.

[5] = tested on: patient-derived AML cells; test: Patient-derived AML xenograft in NSG mice, epacadostat chow and/or Ara-C; type: in vivo, mouse
Experimental: as §1
For the combination therapy (Epacadostat+chemotherapy) performed at the University of Pennsylvania, patient-derived AML cells were transplanted as previously reported (48). Briefly 6 weeks old NSG males were sublethally treated with busulfan (30 mg/kg) 24 h before transplant and 5×10^6 patient-derived AML cells were injected i.v. Engraftment was assessed, and mice were randomized at 7.5 weeks by BM aspirate as previously described. Randomized mice were treated with vehicle, cytosine arabinoside (Ara-C, 60 mg/kg/day×5 days i.p.), epacadostat chow (1.6 g/kg ad libitum) or both Ara-C and epacadostat chow for 3 weeks.

[6] = day 22 after initiating therapy, Ara-C 60 mg/kg/day x 5 days, epacadostat chow 1.6 g/kg 3 weeks

SMILES: NS(=O)(=O)NCCNc1nonc1C(=NO)Nc1ccc(F)c(Br)c1 [epacadostat]
- reduction in serum Kyn levels (IDO1 [1]; MLL/AF9-injected mice, diet 1.6 g/kg): 35%
- effect on the 1.5-fold-increase in systemic Kyn/Trp levels of MLL/AF9 leukemic mice (IDO1 [1]; MLL/AF9 leukemic mice, diet 0.8 g/kg): did not reduce
- reduction in basal circulating Kyn/Trp levels (IDO1 [1]; no leukemia, ad libitum diet 0.8 g/kg): 54%
- reduction in circulating kynurenine and tryptophan levels (IDO1 [1]; wild type mice, dose not stated): 41%
- systemic toxicity [2]: did not show any obvious systemic toxicity
- cell cycle progression (IDO1 [3]): impaired
- kynurenine secretion (IDO1 [3]): abrogated
- survival (MLL/AF9 AML cells; AML-injected mice, dose not stated): increases in survival
- leukemia progression (MLL/AF9 AML cells; epacadostat diet 0.8 g/kg): tendency towards a slower leukemia progression
- survival (MLL/AF9 AML cells; epacadostat diet 0.8 g/kg): slight-yet significant-increase in survival
- AML burden (MLL/AF9 AML cells; epacadostat diet 1.6 g/kg): significant delay in AML burden
- survival (MLL/AF9 AML cells; epacadostat diet 1.6 g/kg, compared to the lower dose): significantly prolonged survival
- G0-G1 and G2-M populations of leukemic blasts [4]: remained unchanged
- leukemic blasts apoptosis [4]: increased leukemic blasts apoptosis
- reduction in Kyn/Trp levels in blood ([4]; 12 days): ~20%
- reduction in AML BM burden ([4]; 12 days, versus vehicle): ~20%
- proliferation of leukemic blasts (hCD45+CD33+) ([4]; in vivo cell cycle): less proliferative
- leukemia burden in both the bone marrow and spleen ([5]; AML patient-derived xenograft models, summary statement): significantly decreases leukemia burden
- leukemic burden in BM [5, 6]: decreased leukemic burden
- leukemic burden in spleen [5, 6]: more pronounced effect in the spleen
